Data on 15 substances can be found in publication PMC10894229, “Novel antimicrobial peptides against Cutibacterium acnes designed by deep learning” (Scientific Reports, 2024).

The test system of data set [1] is rabbit red blood cells (rRBCs). As to the kind of experiment: Hemolytic activity assay. In kind it is cell-based. How it is done: The hemolytic activity of peptides was assayed on rabbit red blood cells (rRBCs)[43]. Briefly, 2% rRBCs (150 μL) were incubated in the presence of various peptide concentrations (50 μL) at 37 °C for 2 h. After centrifugation, the supernatants were collected for measuring absorbance at 545 nm. PBS and 0.01% Triton X-100 were used as the negative (no hemolysis) and positive (100% hemolysis) control, respectively. Triplicate tests were performed.

For data set [2], the system named is human keratinocytes (HaCaT). As to the kind of experiment: HaCaT cell viability, CCK-8 assay. In kind it is cell-based. How it is done:
HaCaT (IM-H225) cells from Xiamen Immocell Biotechnology Co., Ltd were cultured in DMEM high glucose medium (4.5 g/L, Gibco, USA), supplemented with 10% fetal bovine serum (Gibco, USA), 100 U/mL of penicillin and 100 μg/mL of streptomycin in a 5% CO2 fully humidified environment at 37 °C.
Cell Counting Kit-8 (CCK-8; Biosharp, China) was used to assess the rate of cellular proliferation and quantify cell viability. In brief, HaCaT cells were seeded in 96-well plates with 100 μL of medium at a density of 1 × 10^4 cells per well. After incubation of cells overnight, peptides were added into the medium for another 24 h incubation. Then, 10 μL of CCK8 solution was applied to each well and incubated for 1 h at 37 °C. Finally, the absorbance values at 450 nm were determined using a microplate reader (SYNERGY-H1, BioTek, USA). Two columns of the plate were kept for negative control (medium only) and growth control (medium with HaCaT cell). All experiments were conducted in triplicate.
In general terms: Tetrazolium assays rely on reduction of a dye to a coloured formazan, in cell work by metabolically active cells.

In the next data set the test system is C. acnes (BNCC 336649). The settings on record: for Concentration with antimicrobial activity >50%: C. acnes; for Concentration with antimicrobial activity >50% / Category of in vitro test antimicrobial activity against C. acnes: supplementary Table 5; for Antimicrobial activity > 50% against C. acnes: broth microdilution, 48 h, OD 630 nm. How it is done:
The strain of C. acnes (BNCC 336649) was cultured in Wilkins-Chalgren Anaerobe Broth (QingDao RiShui Bio-technologies, 11071) at 37 °C under an anaerobic atmosphere performed by a Labiophy HL-B automatic hypoxic workstation (Dalian, Liaoning Province, Labiophy HL-B), inflated with a gas mix of 15% carbon dioxide, 83% nitrogen, and 2% hydrogen.
Logarithmic phase growth bacteria were used for antimicrobial testing.
To determine the MIC values, the broth microdilution method was used. […] Briefly, peptide samples were prepared as a stock solution in water and then diluted. 180 μL of the bacterial suspension (10^7 CFU/mL) and 20 μL of the tested sample were added together into 96-Well Deep Well Plates and incubated 24 h for E. coli and S. aureus or 48 h for C. acnes and C. albicans. For each test, two columns of the plate were kept for sterility control (broth only) and growth control (broth with bacterial inoculums, no antibiotics). The optical density of cultures was measured at 630 nm by a microplate reader (SYNERGY-H1, BioTek, USA) to estimate bacterial growth. All experiments were conducted in triplicate. We used ciprofloxacin (CPFX) as the antibiotic control for antimicrobial testing.
A general note: In broth dilution the organism is exposed to a series of concentrations in liquid medium.

Where two headings read alike, the source gives them in different places. Ends that are not written are not given here.

For AKRIVKLIKNFFRKL-NH2 [AMP-25], the “Hemolysis Index” value in data set [1] turned out to be 60. Besides, in data set [2], the “Cytotoxic Index” value amounted to 20 and the “HaCaT cell tolerance up to” value amounted to 80 µg/mL.
Take “FKRLKKLFKKIWNWK [HPA3NT3, reference compound]”: the “Hemolysis Index” value in data set [1] (ratio of EC90 (rabbit red blood cells) to MIC of C. acnes) turned out to be 32. Also, the “Cytotoxic Index” value in data set [2] (ratio of EC90 (HaCaT) to MIC of C. acnes) amounted to 8.
As for GIFKKITGKLFKWIK [AMP-5], the “Hemolysis Index” value in data set [1] was 30. In data set [2], the “Cytotoxic Index” value turned out to be 10 and the “HaCaT cell tolerance up to” value came out at 80 µg/mL.
For GVFDWLKKLGKKLAG [AMP-14], the “HaCaT cell tolerance up to” value in data set [2] was 80 µg/mL. The “Concentration with antimicrobial activity >50%” value in the data set on C. acnes (BNCC 336649) was found to be 12.5 µg/mL. The “Antimicrobial activity > 50% against C. acnes” value with C. acnes (BNCC 336649) (at 25 µg/mL), in the data set with C. acnes (BNCC 336649) (at 50 µg/mL) and with C. acnes (BNCC 336649) (at 100 µg/mL) was “Inhibit (A peptide was deemed to have antimicrobial activity if C. acnes growth was inhibited by more than 50% at a given concentration)” each time. Besides, the “Category of in vitro test antimicrobial activity against C. acnes” value (“Category” for short) in the data set on C. acnes (BNCC 336649) is “Strong AMP”.
For GWAKRLATRLAKAIL-NH2 [AMP-27], the “Hemolysis Index” value in data set [1] is given as 6.4. In data set [2], the “Cytotoxic Index” value amounted to 12.8 and the “HaCaT cell tolerance up to” value is listed as 320 µg/mL.
The corresponding values for HFLGVVAKLVSKLF [AMP-38] are 16, 10 and 80 µg/mL.
In the case of KILGKLLKWASKIW [AMP-31], in data set [1], the “Hemolysis Index” value worked out at 20. Also, the “Cytotoxic Index” value in data set [2] turned out to be 8.
The corresponding values for KKIFKRIVKIIKRLL [AMP-29] are 32 and 16.
For the substance KKLACRLWKWLAKKA [AMP-21], the “HaCaT cell tolerance up to” value in data set [2] is on record as 80 µg/mL. Besides, in the data set with C. acnes (BNCC 336649), the “Concentration with antimicrobial activity >50%” value was 12.5 µg/mL. For the same substance, the “Antimicrobial activity > 50% against C. acnes” value with C. acnes (BNCC 336649) (at 25 µg/mL), in the data set on C. acnes (BNCC 336649) (at 50 µg/mL) and with C. acnes (BNCC 336649) (at 100 µg/mL) was “Inhibit (A peptide was deemed to have antimicrobial activity if C. acnes growth was inhibited by more than 50% at a given concentration)” each time. Moreover, in the data set on C. acnes (BNCC 336649), the “Category” value is on record as “Strong AMP”.
For KKWRKVLKLIKRLVG-NH2 [AMP-12], in data set [1], the “Hemolysis Index” value is given as 40. Moreover, the “Cytotoxic Index” value in data set [2] is recorded as 16.
Consider KRIVHRLLKKLHSLF [AMP-9], for which the “Hemolysis Index” value in data set [1] was 30. In data set [2], the “Cytotoxic Index” value stood at 20 and the “HaCaT cell tolerance up to” value was determined as 160 µg/mL.
For LSKWLKKLGKLLAG [AMP-33], the “Hemolysis Index” value in data set [1] is recorded as 20. Besides, in data set [2], the “Cytotoxic Index” value is reported as 20 and the “HaCaT cell tolerance up to” value came out at 80 µg/mL.
As for VKRLKKAFKKLARLV [AMP-32], the “Antimicrobial activity > 50% against C. acnes” value is “No (A peptide was deemed to have antimicrobial activity if C. acnes growth was inhibited by more than 50% at a given concentration)” in the data set with C. acnes (BNCC 336649) (at 25 µg/mL), “Inhibit (A peptide was deemed to have antimicrobial activity if C. acnes growth was inhibited by more than 50% at a given concentration)” in the data set with C. acnes (BNCC 336649) (at 50 µg/mL) and “Inhibit (A peptide was deemed to have antimicrobial activity if C. acnes growth was inhibited by more than 50% at a given concentration)” in the data set with C. acnes (BNCC 336649) (at 100 µg/mL). In the data set on C. acnes (BNCC 336649), the “Category” value was “Medium AMP”.
With WFKAIPQAISALKKI [AMP-26], the “Concentration with antimicrobial activity >50%” value with C. acnes (BNCC 336649) is listed as 100 µg/mL. For the same substance, the “Antimicrobial activity > 50% against C. acnes” value in the data set on C. acnes (BNCC 336649) (at 25 µg/mL) is given as “No (A peptide was deemed to have antimicrobial activity if C. acnes growth was inhibited by more than 50% at a given concentration)”; with C. acnes (BNCC 336649) (at 50 µg/mL) it was “No (A peptide was deemed to have antimicrobial activity if C. acnes growth was inhibited by more than 50% at a given concentration)”; in the data set with C. acnes (BNCC 336649) (at 100 µg/mL), “Inhibit (A peptide was deemed to have antimicrobial activity if C. acnes growth was inhibited by more than 50% at a given concentration)”. Further, the “Category” value with C. acnes (BNCC 336649) is recorded as “Weak AMP”.
In the case of WLSKTAKKLWNVFKS [AMP-15], the “Concentration with antimicrobial activity >50%” value in the data set with C. acnes (BNCC 336649) was determined as 25 µg/mL. Further, the “Antimicrobial activity > 50% against C. acnes” value with C. acnes (BNCC 336649) (at 25 µg/mL), in the data set with C. acnes (BNCC 336649) (at 50 µg/mL) and in the data set with C. acnes (BNCC 336649) (at 100 µg/mL) was “Inhibit (A peptide was deemed to have antimicrobial activity if C. acnes growth was inhibited by more than 50% at a given concentration)” each time. In addition, the “Category” value with C. acnes (BNCC 336649) is “Medium AMP”.
